Results on 25 compounds are retold here after patent publication US4556660A, “N-(Bicyclic heterocyclyl)-4-piperidinamines” (Janssen Pharmaceutica N.V., priority 1983, dated 1985).

Assay [1] relates to compound 48/80-induced lethality. Kind of assay: Protection of rats from compound 48/80-induced lethality. The format is in vivo, Male rats of an inbred Wistar strain. Particulars: Rattus norvegicus, 4 h, read-out: compound 48/80 lethality test rats-ED50. The procedure: Protection of rats from compound 48/80-induced lethality
The protection from compound 48/80-induced lethal circulatory collapse appears to be a simple way of evaluating quantitatively the antihistaminic activity of test compounds. Male rats of an inbred Wistar strain, weighing 240-260 g were used in the experiment. After overnight starvation the rats were transferred to conditioned laboratories (temp.=21±1° C., relative humidity-65±5%).
The rats were treated subcutaneously or orally with a test compound or with the solvent (NaCl solution, 0.9%). […] Survival after 4 hours is therefore considered to be a safe criterion of a protective effect of drug administration.
The ED50 -values of the compounds of formula (I) and the intermediates of formula (XVIII) are listed in the first column of table 1 and table 2. Said ED50 -values are the values in mg/kg body weight at which the tested compounds protect 50% of the tested animals against compound 48/80-induced lethality.

Assay [2] relates to serotonin; compound 48/80-induced gastric lesions. As to the kind of experiment: Antagonistic activity on the effects of serotonin in the gastric lesion test (lesions induced by compound 48/80). The format is in vivo, Male rats of a Wistar inbred strain. As for the experimental part:
Antagonistic activity on the effects of serotonin in the gastric lesion test
Male rats of a Wistar inbred strain, weighing 220-250 g, were starved overnight, water being available ad libitum. The test compounds were administered orally as a solution or as a suspension in aqueous medium. A control rat and a "blank" rat received the test compound. One hour later 5-[4-(diphenylmethyl)-1-piperazinylmethyl]-1-methyl-1H-benzimidazole-2-methanol was administered subcutaneously to all rats at the dose of 2.5 mg/kg.
Four hours after the intravenous injection of compound 48/80, the rats were decapitated and the stomachs were removed. Subsequently the stomachs were inspected for distension and contents (blood, fluid, food) and thoroughly rinsed. The macroscopic lesions were scored from 0 to +++, 0 corresponding to complete absence of visible lesions and the highest score corresponding to reddish rough patches covering more than half the glandular area.

Where [3] appears, read: Rattus norvegicus, po; read-out: gastric lesion test ED50.
[4] abbreviates: Rattus norvegicus, po, read-out: gastric lesion test ED50.

Where two headings read alike, the source gives them in different places.

Take `Fc1ccc(Cn2c(NC3CCN(CCOCc4ccccn4)CC3)nc3ccccc32)cc1.O=C(O)/C=C/C(=O)O.O=C(O)/C=C/C(=O)O` [Compound 84, 1-[(4-fluorophenyl)methyl]-N-[1-[2-(2-pyridinylmethoxy)ethyl]-4-piperidinyl]-1H-benzimidazol-2-amine (E)-2-butenedioate (1:2)]: the ED50 in assay [1] was found to be 0.08 mg/kg; in assay [2] (setting [3]) it was 2.5 mg/kg.
In the same order, the values of `O.O=c1nc(NCCN2CCC(Nc3nc4ccccc4n3Cc3ccc(F)cc3)CC2)[nH]cc1Cc1ccc(Cl)cc1` [Compound 85, 5-[(4-chlorophenyl)methyl]-2-[[2-[4-[[1-[(4-fluorophenyl)methyl]-1H-benzimidazol-2-yl]amino]-1-piperidinyl]ethyl]amino]-4(1H)-pyrimidinone monohydrate] are 1.25 mg/kg and 2.5 mg/kg.
On the same counts, the results for `CSc1nccc(OCCN2CCC(Nc3nc4ccccc4n3Cc3ccc(F)cc3)CC2)n1` [Compound 79, 1-[(4-fluorophenyl)methyl]-N-[1-[2-[[2-(methylthio)-4-pyrimidinyl]oxy]ethyl]-4-piperidinyl]-1H-benzimidazol-2-amine] are 0.16 mg/kg and 2.5 mg/kg.
Turning to `Cl.Cl.Cl.Fc1ccc(Cn2c(NC3CCN(CCCNc4ccc(Cl)cn4)CC3)nc3ccccc32)cc1.O` [Compound 30, N-[1-[3-[(5-chloro-2-pyridinyl)amino]propyl]-4-piperidinyl]-1-[(4-fluorophenyl)methyl]-1H-benzimidazol-2-amine trihydrochloride monohydrate], the ED50 in assay [1] came to 0.63 mg/kg; in assay [2] (setting [3]), 2.5 mg/kg.
On the same counts, the results for `Cl.Cl.Fc1ccc(Cn2c(NC3CCN(CCNc4ccnc(Cl)n4)CC3)nc3ccccc32)cc1.O` [Compound 60, N-[1-[2-[(2-chloro-4-pyrimidinyl)amino]ethyl]-4-piperidinyl]-1-[(4-fluorophenyl)methyl]1H-benzimidazol-2-amine dihydrochloride monohydrate] are 0.31 mg/kg and 2.5 mg/kg.
As for `Nc1nc(NCCN2CCC(Nc3nc4ccccc4n3Cc3ccc(F)cc3)CC2)ccc1[N+](=O)[O-]` [Compound 63, N^6-[2-[4-[[1-[(4-fluorophenyl)methyl]1H-benzimidazol-2-yl]amino]-1-piperidinyl]ethyl]-3-nitro-2,6-pyridinediamine], the ED50 came to 0.31 mg/kg in assay [1] and 2.5 mg/kg in assay [2] (setting [3]).
Consider `CC(CN1CCC(Nc2nc3ccccc3n2Cc2ccc(F)cc2)CC1)Nc1ncccn1` (centres unmarked) [Compound 7], for which the ED50 in assay [1] and in assay [2] (setting [3]) was 0.63 mg/kg in each case.
Consider `O=c1ccnc(NCCN2CCC(Nc3nc4ccccc4n3Cc3ccc(F)cc3)CC2)[nH]1` [Compound 87], for which the ED50 in assay [1] is 0.08 mg/kg; in assay [2] (setting [3]), 0.63 mg/kg.
Take `Fc1ccc(Cn2c(NC3CCN(CCNC(=S)Nc4ccccn4)CC3)nc3ccccc32)cc1` [Compound 105, N-[2-[4-[[1-[(4-fluorophenyl)methyl]-1H-benzimidazol-2-yl]amino]-1-piperidinyl]ethyl]-N'-(2-pyridinyl)thiourea]: the ED50 in assay [1] and in assay [2] (setting [3]) was 0.63 mg/kg throughout.
In the case of `c1cnc(NCCN2CCC(Nc3nc4ccccc4n3Cc3ccco3)CC2)nc1` [Compound 43], the ED50 stood at 0.16 mg/kg in assay [1] and 0.04 mg/kg in assay [2] (setting [4]).
As for `Nc1cncnc1NCCN1CCC(Nc2nc3ccccc3n2Cc2ccc(F)cc2)CC1` [Compound 96, N^4-[2-[4-[[1-[(4-fluorophenyl)methyl]-1H-benzimidazol-2-yl]amino]-1-piperidinyl]ethyl]-4,5-pyrimidinediamine], the ED50 worked out at 0.08 mg/kg in assay [1] and 0.02 mg/kg in assay [2] (setting [3]).
Regarding `Fc1ccc(Cn2c(NC3CCN(CCNc4ccncn4)CC3)nc3ccccc32)cc1` [Compound 94, 1-[(4-fluorophenyl)methyl]-N-[1-[2-(4-pyrimidinylamino)ethyl]-4-piperidinyl]-1H-benzimidazol-2-amine hemihydrate], the ED50 came to 0.08 mg/kg in assay [1] and 1.25 mg/kg in assay [2] (setting [3]).
On the same counts, the results for `O=C(c1ccccc1)N(CCN1CCC(Nc2nc3ccccc3n2Cc2ccc(F)cc2)CC1)c1ncccn1` [Compound 100, N-[2-[4-[[1-fluorophenyl)methyl]-1H-benzimidazol-2-yl]amino]-1-piperidinyl]ethyl]-N-(2-pyrimidinyl)benzamide (E)-2-butenedioate (1:2)] are 0.08 mg/kg and 0.63 mg/kg.
On the same counts, the results for `Fc1ccc(Cn2c(NC3CCN(CCN(Cc4ccccc4)c4ncccn4)CC3)nc3ccccc32)cc1` [Compound 8] are 0.63 mg/kg and 0.63 mg/kg.
For `Fc1ccc(Cn2c(NC3CCN(CCSc4ncccn4)CC3)nc3ccccc32)cc1` [Compound 91, 1-[(4-fluorophenyl)methyl]-N-[1-[2-(2-pyrimidinylthio)ethyl]-4-piperidinyl]-1H-benzimidazol-2-amine], the ED50 in assay [1] and in assay [2] (setting [3]) was 0.16 mg/kg each time.
On to `COc1ccc(Cn2c(NC3CCN(CCNc4ncccn4)CC3)nc3ccccc32)cc1` [Compound 69, 1-[(4-methoxyphenyl)methyl]-N-[1-[2-(2-pyrimidinylamino)ethyl]-4-piperidinyl]-1H-benzimidazol-2-amine], for which the ED50 in assay [1] worked out at 0.31 mg/kg; in assay [2] (setting [3]), 2.5 mg/kg.
On the same counts, the results for `Nc1nccnc1C(=O)NCCN1CCC(Nc2nc3ccccc3n2Cc2ccc(F)cc2)CC1` [Compound 113, 3-amino-N-[2-[4-[[1-[(4-fluorophenyl)methyl]-1H-benzimidazol-2-yl]amino]-1-piperidinyl]ethyl]-2-pyrazinecarboxamide] are 0.04 mg/kg and 0.16 mg/kg.
As to `Fc1ccc(Cn2c(NC3CCN(CCOc4ncccn4)CC3)nc3ccccc32)cc1` [Compound 81, 1-[(4-fluorophenyl)methyl]-N-[1-[2-(2-pyrimidinyloxy)ethyl]-4-piperidinyl]-1H-benzimidazol-2-amine], the values for the ED50 in assay [1] and in assay [2] (setting [3]) were 0.16 mg/kg and 0.63 mg/kg, respectively.
With `O=C(O)/C=C/C(=O)O.O=C(O)/C=C/C(=O)O.c1cnc(NCCN2CCC(Nc3nc4ccccc4n3Cc3cscn3)CC2)nc1` [Compound 72, N-[1-[2-(2-pyrimidinylamino)ethyl]-4-piperidinyl]-1-(4-thiazolylmethyl)-1H-benzimidazol-2-amine (E)-2-butenedioate (1:2)], the ED50 in assay [1] came out at 0.02 mg/kg; in assay [2] (setting [4]), 0.08 mg/kg.
`Fc1ccc(Cn2c(NC3CCN(CCCCNc4ncccn4)CC3)nc3ccccc32)cc1` [Compound 2]: the ED50 in assay [1] is 0.16 mg/kg; in assay [2] (setting [3]), 2.5 mg/kg.
In the same order, the values of `Cc1cc(=O)[nH]c(NCCN2CCC(Nc3nc4ccccc4n3Cc3ccc(F)cc3)CC2)n1` [Compound 90] are 0.16 mg/kg and 0.63 mg/kg.
For the compound `NC(=O)c1ccc(NCCN2CCC(Nc3nc4ccccc4n3Cc3ccc(F)cc3)CC2)nc1` [Compound 42], the ED50 in assay [1] stood at 0.04 mg/kg; in assay [2] (setting [4]) it was 0.08 mg/kg.
As to `c1cnc(NCCN2CCC(Nc3nc4ccccc4n3Cc3ccoc3)CC2)nc1` [Compound 20], the results for the ED50 in assay [1] and in assay [2] (setting [3]) were 0.04 mg/kg and 0.63 mg/kg, respectively.
In the same order, the values of `c1cnc(NCCN2CCC(Nc3nc4ccccc4n3Cc3cnccn3)CC2)nc1` [Compound 18] are 0.01 mg/kg and 0.63 mg/kg.
On the same counts, the results for `c1ccc(Cn2c(NC3CCN(CCNc4ncccn4)CC3)nc3ccccc32)cc1` [Compound 65, 1-(phenylmethyl)-N-[1-[2-[(2-pyrimidinyl)amino]ethyl]-4-piperidinyl]-1H-benzimidazol-2-amine] are 0.08 mg/kg and 0.31 mg/kg.
